Test results taken from patent US20260174875A1 (Novo Nordisk A/S, priority 2023, published 2026).
Where two headings read alike, the source gives them in different places. Numbered stars: 1 amine (or outer) side, 2 acyl side, 3 side chain; on linkers, the order of the positions; unused ones are H or OH. Square brackets hold non-standard residues; d marks the D form. Side chains are listed from the residue outwards. * marks the point of attachment. C20 diacid = O=C(O)CCCCCCCCCCCCCCCCCCC(=O)*; C18 diacid = O=C(O)CCCCCCCCCCCCCCCCC(=O)*; C16 diacid = O=C(O)CCCCCCCCCCCCCCC(=O)*; γGlu = O=C(O)[C@H](CCC(=O)[*:2])N[*:1]; AEEA = NCCOCCOCC(=O)O; Aib = CC(C)(N)C(=O)O

Experiments:
Type in all cases: cell-based
[1] = molecular target: T1, human GLP-1 receptor (hGLP-1R) (Homo sapiens, UniProt P43220); experiment: GLP-1 receptor assay, method A (CRE-luciferase reporter, BHK cells)
T1 construct: expressed in transfected cells
Procedure: (§1) To assess how the activation of the receptors is potentially influenced by the presence of human serum albumin (HSA), the in vitro assays were performed in the absence of HSA and presence of 1% (w/v) HSA.
Cells at approximately 80-90% confluence were washed once in PBS (Gibco 14190-094) and loosened from the cell flasks with Versene (Gibco, 15040-033). […] Cells were aliquoted and stored at −180° C. until use.
(§2) The assay buffer consisted of DMEM without phenol red (Gibco, 11880-028) supplemented with 1× GlutaMAX (Gibco, 35050-038), 10 mM HEPES (Gibco, 15630-056), 1% (w/v) ovalbumin (Sigma, A5503) and 0.1% (v/v) Pluronic F-68 (Gibco, 24040-032) either with HSA or without HSA (Sigma, A9511).
Frozen stocks of hGLP-1R BHK CRE-Luc cells were thawed in a 37° C. water bath, washed once in PBS (Gibco 14190-094) and diluted to 1.5×10^6 (1.5E+6) cells/mL in assay buffer with or without 2% (w/v) HSA (Sigma, A9511). […] The assay plates were incubated for 3 hours at 37° C. in 5% CO2, left at room temperature for 5 minutes after which 100 μL steadylite Plus™ (PerkinElmer/Revvity, 6066759) was added to each well. Plates were sealed and incubated at room temperature with gentle shaking for 30 minutes while protected from light. Luminescence was detected on a luminescence plate reader e.g., a Synergy 2 (BioTek).

[2] = molecular target: T2, human GIP receptor (hGIPR) (Homo sapiens, UniProt P48546); experiment: GIP receptor assay, method A (CRE-luciferase reporter, BHK cells)
T2 construct: expressed in transfected cells
T2 sequence (P48546 22-466): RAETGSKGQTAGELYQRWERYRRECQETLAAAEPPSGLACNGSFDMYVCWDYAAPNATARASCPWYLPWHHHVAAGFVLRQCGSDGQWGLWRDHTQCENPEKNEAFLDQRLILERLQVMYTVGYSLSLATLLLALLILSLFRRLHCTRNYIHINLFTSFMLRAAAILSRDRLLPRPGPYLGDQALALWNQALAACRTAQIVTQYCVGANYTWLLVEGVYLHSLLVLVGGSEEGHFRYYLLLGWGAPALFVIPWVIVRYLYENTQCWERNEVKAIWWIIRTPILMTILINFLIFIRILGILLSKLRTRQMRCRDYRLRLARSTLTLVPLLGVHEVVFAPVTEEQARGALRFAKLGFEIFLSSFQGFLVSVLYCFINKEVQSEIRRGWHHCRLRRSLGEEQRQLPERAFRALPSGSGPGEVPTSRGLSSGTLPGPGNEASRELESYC
Procedure: To assess how the activation of the receptors is potentially influenced by the presence of human serum albumin (HSA), the in vitro assays were performed in the absence of HSA and presence of 1% (w/v) HSA. Unless stated otherwise the reference to the “GIP receptor assay as described in Example 4” throughout the specification shall refer to the described herein assay procedure method A (hGIPR assay) in the absence of HSA.
Activation of the human GIP receptor leads to increased intra-cellular concentrations of cyclic AMP (cAMP) and the consequent transcription activation from promoters containing multiple copies of the cAMP response element (CRE). It is thus possible to measure GIP receptor activity using a CRE-luciferase reporter gene introduced into Baby Hamster Kidney (BHK) cells co-expressing the human GIP receptor.
Cells at about 80-90% confluency were washed once with PBS (Gibco 14190-094) and detached from the cell flasks with Versene (Gibco, 15040-066). After centrifugation, the cells were counted, resuspended and diluted to approximately 1.5-3.0×10^6 (1.5E+6 to 3.0E+6) cells/mL in Recovery Cell Culture Freezing Medium (Gibco, 12648-010) and stored at −180° C. in suitable aliquots until use.
as §2
On the day before the assay hGIPR BHK Cre-Luc cells were thawed and plated out in 96 well Culture Plates (PerkinElmer/Revvity, 6005680) at 5.0×10^3 (5.0E+3) cells/well in growth medium as described above. The plates were then incubated for 21-23 hours at 37° C. with 5% CO2. On the day of the assay GLP-1-/GIP-/amylin-receptor tri-agonists or reference compounds were diluted in assay buffer using a 7-point, 10-fold titration plus a blank (absence of compound). Each compound was diluted and tested in duplicates in each experiment. In the plates containing the cells the growth medium was removed, and cells were washed twice with 100 μL PBS (Gibco 14190-094). 50 μL of the test compound dilutions were added to the plates containing cells preceded by 50 μL assay buffer with or without 2% (w/v) HSA (Sigma, A9511). The cell plates were incubated for 3 hours in a 5% CO2 incubator at 37° C. The plates were then transferred to room temperature followed by addition of 100 μL steadylite Plus™ (PerkinElmer/Revvity, 6066759). The plates were sealed and shaken for 30 minutes at room temperature while protected from light. Finally, luminescence (as an indicator of receptor activation) was measured on a Mithras reader (Berthold Technologies, DE). The EC50-values [pM] were calculated by non-linear curve fitting applying a four-parameter logistic model (Hill slope=“shared value for all datasets”) using GraphPad Prism (GraphPad Software, Boston, MA, USA).

[3] = molecular target: T3, human amylin receptor (hAMYR3) (Homo sapiens, UniProt O60896+P30988); experiment: Amylin receptor assay, method A (CRE-luciferase reporter, BHK cells)
T3 construct: host or cells: BHK cells (Hollex-1 line expressing hCTR(a) and CRE-Luc), further transfected with human RAMP3
Procedure: as §1
It is thus possible to measure hAMYR3 activity using a CRE-luciferase reporter gene introduced into Baby Hamster Kidney (BHK) cells co-expressing the hAMYR3.
The cell line was further transfected with human receptor modifying protein 3 (RAMP3) using standard methods.
After centrifugation, the cell pellet was resuspended and diluted to approximately 2.5-4.0×10^6 (2.5E+6 to 4.0E+6) cells/mL in Recovery™ Cell Culture Freezing Medium (Gibco, 12648-010). Cells were aliquoted and stored at −180° C. until use.
as §2, with “15630-056) and” for “15630-056),”, “either with or without” for “and”, “24040-032) and” for “24040-032)”, “with” for “with HSA”
The plate was incubated over night at 37° C. in 5% CO2. […] Luminescence was detected on a luminescence plate reader e.g., a Synergy 2 (BioTek).

[4] = hGLP-1R Potency, 1% HSA, EC50, method A, in the presence of 1% HSA
[5] = method A, absence of HSA, read-out: hGLP-1R Potency, no HSA, EC50
[6] = hGIPR Potency, 1% HSA, EC50, method A, in the presence of 1% HSA
[7] = method A, absence of HSA, read-out: hGIPR Potency, no HSA, EC50
[8] = hAMYR3 Potency, 1% HSA, EC50, method A, in the presence of 1% HSA
[9] = method A, absence of HSA, read-out: hAMYR3 Potency, no HSA, EC50

T3 sequence (P30988 25-474): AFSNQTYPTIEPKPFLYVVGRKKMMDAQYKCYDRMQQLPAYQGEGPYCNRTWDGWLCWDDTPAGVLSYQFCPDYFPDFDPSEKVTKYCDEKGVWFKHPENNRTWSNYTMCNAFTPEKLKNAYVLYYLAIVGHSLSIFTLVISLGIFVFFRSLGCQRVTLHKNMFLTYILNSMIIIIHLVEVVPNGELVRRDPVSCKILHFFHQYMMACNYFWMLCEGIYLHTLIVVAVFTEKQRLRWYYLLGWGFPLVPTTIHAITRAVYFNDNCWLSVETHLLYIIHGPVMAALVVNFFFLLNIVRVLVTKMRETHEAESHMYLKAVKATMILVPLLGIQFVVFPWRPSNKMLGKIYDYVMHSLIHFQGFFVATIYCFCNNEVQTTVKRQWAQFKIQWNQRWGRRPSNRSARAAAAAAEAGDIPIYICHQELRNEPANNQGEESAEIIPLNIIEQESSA
T3 sequence (O60896 24-148): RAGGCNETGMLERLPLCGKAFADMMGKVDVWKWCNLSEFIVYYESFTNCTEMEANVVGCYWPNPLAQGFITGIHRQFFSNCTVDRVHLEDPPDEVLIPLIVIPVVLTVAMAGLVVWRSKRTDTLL
T1 sequence (P43220 24-463): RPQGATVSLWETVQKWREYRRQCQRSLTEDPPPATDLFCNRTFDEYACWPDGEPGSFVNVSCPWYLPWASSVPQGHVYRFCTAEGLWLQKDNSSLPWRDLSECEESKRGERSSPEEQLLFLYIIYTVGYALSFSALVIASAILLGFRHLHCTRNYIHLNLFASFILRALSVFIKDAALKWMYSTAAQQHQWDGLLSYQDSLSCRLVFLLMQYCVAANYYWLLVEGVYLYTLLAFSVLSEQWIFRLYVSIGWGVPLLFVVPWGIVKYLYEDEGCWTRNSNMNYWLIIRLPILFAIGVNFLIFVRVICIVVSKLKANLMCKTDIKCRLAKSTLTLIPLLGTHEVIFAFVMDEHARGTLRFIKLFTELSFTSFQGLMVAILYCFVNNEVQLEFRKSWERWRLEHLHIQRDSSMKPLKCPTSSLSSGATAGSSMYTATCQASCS

Row | Substance | EC50 [1, 4] [nM] | EC50 [1, 5] [nM] | EC50 [2, 6] [nM] | EC50 [2, 7] [nM] | EC50 [3, 8] [nM] | EC50 [3, 9] [nM] | EC50 ([1]; hGLP-1R Potency, no HSA, EC50, method A, absence of HSA) [nM] | EC50 ([2]; hGIPR Potency, no HSA, EC50, method A, absence of HSA) [nM] | EC50 ([3]; hAMYR3 Potency, no HSA, EC50, method A, absence of HSA) [nM]
1 | Y[Aib]EGTFTSDYSILLEEQAAREFIEWLLAGGPSSGALAQTLAQTLASHLSTAQTQRLSAELHK([AEEA-AEEA-γGlu-C20 diacid])LATLPRTETGSGSP-NH2 [Compound 60] | 0.173 | 0.0944 | 0.0283 | 0.00606 | 0.191 | 0.00385 | – | – | –
2 | Y[Aib]EGTFTSDYSILLEEQAAREFIEWLLAGGPSK([AEEA-AEEA-γGlu-C18 diacid])GEASELSTAQLGRLSAELHRLATLPRTETGSGSP-NH2 [Compound 27] | – | 0.0262 | – | 0.00211 | – | 0.00382 | – | – | –
3 | Y[Aib]EGTFTSDYSILLEEQAAREFIEWLLAGGPSSGALAQTLAQTLASHLSTAQTQRLSAELHK([AEEA-AEEA-γGlu-C16 diacid])LATLPRTETGSGSP-NH2 [Compound 59] | 0.0397 | 0.0506 | 0.0272 | 0.00772 | 0.0242 | 0.00385 | – | – | –
4 | H[Aib]HGTFTSDYSILLEEQAAREFIEWLLAGGPSSGEASHLSTAALGRLSAELHK([AEEA-AEEA-γGlu-C18 diacid])LATLPRTETGSGSP-NH2 [Compound 88] | 0.0488 | 0.00412 | 0.0404 | 0.00568 | 0.102 | 0.0037 | – | – | –
5 | Y[Aib]EGTFTSDYSILLEEQAAREFIEWLLAGGPSSGAGQAPGQAPGASK([AEEA-AEEA-γGlu-C18 diacid])LSTAQTQRLSAELHRLATLPRTETGSGSP-NH2 [Compound 54] | – | – | – | – | – | – | 0.0288 | 0.00556 | 0.00302
6 | Y[Aib]EGTFTSDYSILLEEQAAREFIEWLLAGGPSSK([γGlu-C20 diacid])APPPSGGGEASELSTAALGRLSAELHRLATLPRTETGSGSP-NH2 [Compound 42] | – | 0.0613 | – | 0.00801 | – | 0.00342 | – | – | –
7 | H[Aib]HGTFTSDYSILLEEQAAREFIEWLLAGGPSSGAGQAPGQAPGASHLSTAQTARLSAELHK([AEEA-AEEA-γGlu-C18 diacid])LATLPRTETGSGSP-NH2 [Compound 103] | 0.0331 | 0.00524 | 0.0133 | 0.00314 | 0.0736 | 0.00242 | – | – | –

Further substances by falling EC50 [1, 5], results first:

Row | EC50 [1, 4] [nM] | EC50 [1, 5] [nM] | EC50 [2, 6] [nM] | EC50 [2, 7] [nM] | EC50 [3, 8] [nM] | EC50 [3, 9] [nM] | Substance | EC50 ([1]; hGLP-1R Potency, no HSA, EC50, method A, absence of HSA) [nM] | EC50 ([2]; hGIPR Potency, no HSA, EC50, method A, absence of HSA) [nM] | EC50 ([3]; hAMYR3 Potency, no HSA, EC50, method A, absence of HSA) [nM]
8 | 0.105 | 0.0648 | 0.054 | 0.00702 | 0.0785 | 0.0032 | Y[Aib]EGTFTSDYSILLEEQAAREFIEWLLAGGPSSGALAQTLAQTLASHLSTAQTQRLSAELHK([AEEA-AEEA-γGlu-C18 diacid])LATLPRTETGSGSP-NH2 [Compound 48] | – | – | –
9 | 0.0636 | 0.0199 | 0.0111 | 0.00282 | 0.43 | 0.00311 | Y[Aib]EGTFTSDYSILLEEQAAREFIEWLLAGGPSSGAGQAPGQAPGASHLSTAQTQRLSAELHRLATLPK([AEEA-AEEA-γGlu-C20 diacid])TETGSGSP-NH2 [Compound 76] | – | – | –
10 | 0.0348 | 0.0159 | 0.0122 | 0.00366 | 0.0664 | 0.00333 | Y[Aib]EGTFTSDYSILLEEQAAREFIEWLLAGGPSSGAGQAPGQAPGASHLSTAQTQRLSAELHRLK([AEEA-AEEA-AEEA-γGlu-C18 diacid])TLPRTETGSGSP-NH2 [Compound 111] | – | – | –
11 | – | 0.00637 | – | 0.0068 | – | 0.00228 | H[Aib]HGTFTSDYSILLEEQAAREFIEWLLAGGPSK([AEEA-AEEA-γGlu-C18 diacid])GAPPPSGGGEASELSTAALGRLSAELHRLATLPRTETGSGSP-NH2 [Compound 30] | – | – | –
12 | 0.112 | 0.00478 | 0.132 | 0.00263 | 0.0624 | 0.00469 | H[Aib]HGTFTSDYSILLEEQAAREFIEWLLAGGPSK([AEEA-AEEA-γGlu-C18 diacid])GALAQTLGTNEASHLSTAQTQRLSAELHELATLPRTETGSGSP-NH2 [Compound 45] | – | – | –
13 | 0.015 | 0.00457 | 0.0115 | 0.00401 | 0.0599 | 0.00248 | H[Aib]HGTFTSDYSILLEEQAAREFIEWLLAGGPSSGALQAPGQAPLASHLSTAQTARLSAELHK([AEEA-AEEA-γGlu-C18 diacid])LATLPRTETGSGSP-NH2 [Compound 108] | – | – | –
14 | 0.0386 | 0.00416 | 0.0325 | 0.0054 | 0.183 | 0.00545 | H[Aib]HGTFTSDYSILLEEQAAREFIEWLLAGGPSSGEASHLSTAALGRLSAELHRLATLPK([AEEA-AEEA-γGlu-C18 diacid])TETGSGSP-NH2 [Compound 90] | – | – | –
15 | 0.0252 | 0.00366 | 0.0119 | 0.00265 | 0.11 | 0.00249 | H[Aib]HGTFTSDYSILLEEQAAREFIEWLLAGGPSGGEASHLSTAQTQRLSAELHK([AEEA-AEEA-γGlu-C18 diacid])LATLPRTETGSGSP-NH2 [Compound 75] | – | – | –
16 | 0.0111 | 0.00333 | 0.0103 | 0.0048 | 0.0312 | 0.00207 | H[Aib]HGTFTSDYSILLEEQAAREFIEWLLAGGPSSGALQAPGQAPGASHLSTAQTARLSAELHRLK([AEEA-AEEA-γGlu-C18 diacid])TLPRTETGSGSP-NH2 [Compound 106] | – | – | –
